Measured values: patent publication US20200131669A1, “CYCLIC PEPTIDE COMPOUND HAVING HIGH MEMBRANE PERMEABILITY, AND LIBRARY CONTAINING SAME” (Chugai Seiyaku Kabushiki Kaisha, priority 2017, published 2020)
Starred links: 1 amine or outer side, 2 acyl side, 3 side chain; linkers in the order of their positions; H or OH if unused. Positions of bridges follow the written chain, without caps; N, C: chain ends. Non-standard residues stand in square brackets, D forms with d. Residues, ends and D or L forms follow the SMILES beside them. ξ: configuration not given here. *: point of attachment. Phe(4-CF3) = N[C@@H](Cc1ccc(C(F)(F)F)cc1)C(=O)O; 3Pal(6-NMe2) = CN(C)c1ccc(C[C@H](N)C(=O)O)cn1; NMePhe(3-Cl) = CN[C@@H](Cc1cccc(Cl)c1)C(=O)O; Tyr(3-F) = N[C@@H](Cc1ccc(O)c(F)c1)C(=O)O; X5 = O=C(C(CCc1noc(=O)[nH]1)N[*:1])[*:2]; NMehPhe = CN[C@@H](CCc1ccccc1)C(=O)O; Gly(NCH2CH2Ph) = O=C(O)CNCCc1ccccc1; N(isopentyl)Gly = CC(C)CCNCC(=O)O; NMeF = CN[C@@H](Cc1ccccc1)C(=O)O; NMeGABA = CN(CCCC(=O)[*:2])[*:1]; ξThr(3R) = C[C@@H](O)C(N)C(=O)O; Butyl(3-Me,3-OH) = CC(C)(O)CC*; NMeD = CN[C@@H](CC(=O)O)C(=O)O; NMeL = CN[C@@H](CC(C)C)C(=O)O; Propyl(2R-OH) = C[C@@H](O)C*; NMeV = CN[C@H](C(=O)O)C(C)C; NMeAbu = CC[C@H](NC)C(=O)O; NMeA = CN[C@@H](C)C(=O)O; Piperidide = C1CCN(*)CC1; NBuGly = CCCCNCC(=O)O; Isopentyl = CC(C)CC*; Bn = c1ccc(C*)cc1; NEtG = CCNCC(=O)O; Sar = CNCC(=O)O; tBu = CC(C)(C)*

Assay: Caco-2 membrane permeability, improved method as used in the following Examples (96-well, 20 to 24 h preincubation)
Assay type: in vitro ADME
Conditions: human, Caco-2, Caco-2
Method: In the following Examples, membrane permeability was measured in accordance with the improved method established as described above. Specifically, Caco-2 cells were cultured on a 96-well Transwell for three weeks, after which DMEM+FaSSIF (1% DMSO)+compound were added to the apical side and DMEM was added to the basal side, and the cells were preincubated at 5% CO2, 37° C., and 80 rpm for 20 to 24 hours. Following the preincubation, measurement of membrane permeability was initiated by removing the preincubation solution on the apical and basal sides by suction, washing the membrane, and adding FaSSIF/HBSS buffer (1% DMSO) (pH 6.0) containing the compound to the apical side and HBSS buffer (4% BSA) (pH 7.4) to the basal side. Each well was shaken at 5% CO2, 37° C., and 80 rpm, and 180 minutes after the initiation, the sample on the basal side was collected and the permeation amount was measured by LC/MS. The membrane permeability coefficient (Papp) was calculated from the permeation amount. Herein, the terms “Caco-2 (cm/sec)” in the columns in the tables and “Papp (cm/sec)” are used in the same meaning.
In the case of `CC(C)C[C@H]1C(=O)N[C@@H](C(C)C)C(=O)N(C)[C@@H](Cc2ccccc2)C(=O)N(C)[C@@H](Cc2ccccc2)C(=O)N[C@@H](COC(C)(C)C)C(=O)N(C)[C@@H](CC(C)C)C(=O)N[C@@H](COC[C@@H](C)O)C(=O)N(C)[C@@H](CC(C)C)C(=O)N(C)[C@@H](CC(C)C)C(=O)N[C@H](C(=O)N2CCCCC2)CC(=O)N(C)CCCC(=O)N1C` [pd493] ([NMeGABA][NMeL]V[NMeF][NMeF]S(tBu)[NMeL]S(Propyl(2R-OH))[NMeL][NMeL]D-Piperidide; lactam N-11), the Papp A→B at 180 min is reported as 1.3 ×10⁻⁶ cm/s. With `CC(C)CCOC[C@@H]1NC(=O)[C@H](CC(C)C)N(C)C(=O)CCCN(C)C(=O)C[C@@H](C(=O)N2CCCCC2)NC(=O)[C@H](CC(C)C)N(C)C(=O)[C@H](C)N(C)C(=O)[C@H]([C@@H](C)O)NC(=O)[C@H](CC(C)C)N(C)C(=O)[C@H](COC(C)(C)C)NC(=O)[C@H](Cc2ccccc2)N(C)C(=O)[C@H](Cc2ccccc2)N(C)C1=O` [pd303] ([NMeGABA][NMeL]S(Isopentyl)[NMeF][NMeF]S(tBu)[NMeL]T[NMeA][NMeL]D-Piperidide; lactam N-11) the Papp A→B at 180 min was 1 ×10⁻⁶ cm/s. `CC[C@H]1C(=O)N[C@@H]([C@@H](C)O)C(=O)N(C)CC(=O)N(C)[C@@H](Cc2ccccc2)C(=O)N(C)[C@@H](CC)C(=O)N[C@@H](COC(C)(C)C)C(=O)N(C)[C@@H](CC(C)C)C(=O)N[C@H](C(=O)N2CCCCC2)CC(=O)N(CCc2ccccc2)CC(=O)N(C)[C@@H](CC(C)C)C(=O)N[C@@H](CC(C)C)C(=O)N1C` [pd412] ([Gly(NCH2CH2Ph)][NMeL]L[NMeAbu]T[Sar][NMeF][NMeAbu]S(tBu)[NMeL]D-Piperidide; lactam N-11) gave a Papp A→B at 180 min of 1.5 ×10⁻⁶ cm/s. For `CC(C)CCN1CC(=O)N(C)[C@@H](CC(C)C)C(=O)N[C@@H](COC(C)(C)C)C(=O)N(C)[C@@H](Cc2ccccc2)C(=O)N(C)[C@@H](C(C)C)C(=O)N[C@H](C(=O)N2CCCCC2)CC(=O)N[C@H](C)C(=O)N(C)[C@@H](CC(C)C)C(=O)N[C@@H](Cc2ccc(N(C)C)nc2)C(=O)N(C)[C@@H](CC(C)C)C(=O)N[C@@H]([C@@H](C)O)C1=O` [pd396] ([dA][NMeL][3Pal(6-NMe2)][NMeL]T[N(isopentyl)Gly][NMeL]S(tBu)[NMeF][NMeV]D-Piperidide; lactam N-11), the Papp A→B at 180 min was 1.5 ×10⁻⁶ cm/s. Work on `CC[C@H]1C(=O)N[C@@H]([C@@H](C)O)C(=O)N(C)CC(=O)N(C)[C@@H](CC(C)C)C(=O)N[C@@H](CC(C)C)C(=O)N(C)[C@@H](Cc2ccccc2)C(=O)N(C)[C@@H](CC(C)C)C(=O)N[C@H](C(=O)N2CCCCC2)CC(=O)N[C@H](C(C)C)C(=O)N(C)[C@@H](CCc2ccccc2)C(=O)N[C@@H](CC(C)C)C(=O)N1C` [pd320] ([dV][NMehPhe]L[NMeAbu]T[Sar][NMeL]L[NMeF][NMeL]D-Piperidide; lactam N-11) yielded a Papp A→B at 180 min of 1.7 ×10⁻⁶ cm/s. With `CC(C)C[C@H]1C(=O)N[C@@H]([C@@H](C)O)C(=O)N(C)CC(=O)N(C)[C@@H](Cc2ccccc2)C(=O)N(C)[C@@H](CC(C)C)C(=O)N[C@@H](COC(C)(C)C)C(=O)N(C)[C@@H](CC(C)C)C(=O)N[C@H](C(=O)N2CCCCC2)CC(=O)N(C)CC(=O)N(C)[C@@H](Cc2ccccc2)C(=O)N[C@@H](COCc2ccccc2)C(=O)N1C` [pd369] ([Sar][NMeF]S(Bn)[NMeL]T[Sar][NMeF][NMeL]S(tBu)[NMeL]D-Piperidide; lactam N-11) the Papp A→B at 180 min was 3 ×10⁻⁶ cm/s. Compound `CC(C)C[C@H]1C(=O)N[C@@H](COC(C)(C)C)C(=O)N(C)[C@@H](Cc2ccccc2)C(=O)N(C)[C@@H](C(C)C)C(=O)N[C@H](C(=O)N2CCCCC2)CC(=O)N[C@H](C(C)C)C(=O)N(C)[C@@H](CC(C)C)C(=O)N[C@@H](COc2ccccc2Cl)C(=O)N(C)[C@@H](C)C(=O)N[C@@H]([C@@H](C)O)C(=O)N(C)CC(=O)N1C` [pd339] has a Papp A→B at 180 min of 2.6 ×10⁻⁶ cm/s. Compound `CC(C)C[C@@H]1NC(=O)[C@H](Cc2ccccc2)N(C)C(=O)[C@H](CC(C)C)N(C)C(=O)[C@H](COCCC(C)(C)O)NC(=O)[C@H](C)N(C)C(=O)C[C@@H](C(=O)N2CCCCC2)NC(=O)[C@H](CC(C)C)N(C)C(=O)CN(C)C(=O)[C@H]([C@@H](C)O)NC(=O)[C@H](CC(C)C)N(C)C(=O)[C@H](CCc2ccccc2)N(C)C1=O` [pd436] ([NMeA]S(Butyl(3-Me,3-OH))[NMeL][NMeF]L[NMehPhe][NMeL]T[Sar][NMeL]D-Piperidide; lactam N-11) has a Papp A→B at 180 min of 1.3 ×10⁻⁶ cm/s.

Same assay, conditions: human, Caco-2, Caco-2 (cm/sec)
With `CC[C@H](C)[C@@H]1NC(=O)[C@H](CC(C)C)N(C)C(=O)[C@@H](C)NC(=O)C[C@@H](C(=O)N2CCCCC2)NC(=O)[C@H](C(C)C)N(C)C(=O)[C@H](Cc2ccccc2)N(C)C(=O)[C@H](COC(C)(C)C)NC(=O)[C@H](CC(C)C)N(C)C(=O)CN(C)C(=O)[C@H](Cc2ccc(O)cc2)NC(=O)[C@H](C)N(C)C1=O` [pd117] ([dA][NMeL]I[NMeA]Y[Sar][NMeL]S(tBu)[NMeF][NMeV]D-Piperidide; lactam N-11) the Papp A→B at 180 min was 0.56 ×10⁻⁶ cm/s. In the case of `CC(C)C[C@@H]1NC(=O)[C@H](CC(C)C)N(C)C(=O)[C@H](C)N(C)C(=O)[C@H]([C@@H](C)O)NC(=O)[C@H](CC(C)C)N(C)C(=O)[C@H](COC(C)(C)C)NC(=O)[C@H](Cc2cccc(Cl)c2)N(C)C(=O)[C@H](CC(C)C)NC(=O)[C@H](C(C)C)N(C)C(=O)[C@@H](C(C)C)NC(=O)C[C@@H](C(=O)N2CCCCC2)NC1=O` [pd171] ([dV][NMeV]L[NMePhe(3-Cl)]S(tBu)[NMeL]T[NMeA][NMeL]LD-Piperidide; lactam N-11), the Papp A→B at 180 min is reported as 1.2 ×10⁻⁶ cm/s. `CC(C)C[C@@H]1NC(=O)[C@H](Cc2ccccc2)N(C)C(=O)[C@@H](C)NC(=O)C[C@@H](C(=O)N2CCCCC2)N(C)C(=O)[C@H](Cc2ccccc2)N(C)C(=O)[C@H](Cc2ccccc2)N(C)C(=O)[C@H](COC(C)(C)C)NC(=O)[C@H](CC(C)C)N(C)C(=O)CN(C)C(=O)[C@H]([C@@H](C)O)NC(=O)[C@H](CC(C)C)N(C)C1=O` [pd224] ([dA][NMeF]L[NMeL]T[Sar][NMeL]S(tBu)[NMeF][NMeF][NMeD]-Piperidide; lactam N-11) showed a Papp A→B at 180 min of 1 ×10⁻⁶ cm/s. `CC(C)C[C@H]1C(=O)N[C@H](C(=O)N2CCCCC2)CC(=O)N(C)[C@@H](C)C(=O)N[C@@H](Cc2ccc(O)c(F)c2)C(=O)N(C)[C@@H](CC(C)C)C(=O)N(C)[C@@H](CC(C)C)C(=O)N[C@@H](C(C)C)C(=O)N(C)[C@@H](Cc2ccccc2)C(=O)N(C)[C@@H](CC(C)C)C(=O)N[C@@H]([C@@H](C)O)C(=O)N(C)CC(=O)N1C` [pd122] ([NMeA][Tyr(3-F)][NMeL][NMeL]V[NMeF][NMeL]T[Sar][NMeL]D-Piperidide; lactam N-11) showed a Papp A→B at 180 min of 0.46 ×10⁻⁶ cm/s. `CC(C)C[C@H]1C(=O)N(C)[C@@H](CC(C)C)C(=O)N[C@@H](COC(C)(C)C)C(=O)N(C)[C@@H](C(C)C)C(=O)N[C@H](C(=O)N2CCCCC2)CC(=O)N(C)CC(=O)N(C)[C@@H](Cc2ccccc2)C(=O)N[C@@H](Cc2ccc(C(F)(F)F)cc2)C(=O)N(C)[C@@H](CC(C)C)C(=O)N[C@@H]([C@@H](C)O)C(=O)N(C)CC(=O)N1C` [pd140] ([Sar][NMeF][Phe(4-CF3)][NMeL]T[Sar][NMeL][NMeL]S(tBu)[NMeV]D-Piperidide; lactam N-11) gave a Papp A→B at 180 min of 2.5 ×10⁻⁶ cm/s. Work on `CC(C)C[C@H]1C(=O)N(C)[C@@H](Cc2ccccc2)C(=O)N(C)[C@@H](CC(C)C)C(=O)N[C@H](C(=O)N(C)[C@@H](Cc2ccccc2)C(=O)N[C@@H](Cc2ccccc2)C(=O)N2CCCCC2)CC(=O)N[C@@H](C(C)C)C(=O)N[C@@H](C)C(=O)N[C@@H]([C@@H](C)O)C(=O)N(C)[C@@H](C)C(=O)N[C@@H](Cc2ccccc2)C(=O)N1C` [pd241] (VAT[NMeA]F[NMeL][NMeF][NMeL]D[NMeF]F-Piperidide; lactam N-9) yielded a Papp A→B at 180 min of 0.058 ×10⁻⁶ cm/s. In the case of `CCN1CC(=O)N[C@@H]([C@@H](C)O)C(=O)N(C)[C@@H](CC(C)C)C(=O)N(C)[C@@H](CC(C)C)C(=O)N[C@@H](Cc2ccc(C(F)(F)F)cc2)C(=O)N[C@H](C(=O)N2CCCCC2)CC(=O)N[C@@H](COC(C)(C)C)C(=O)N(C)[C@@H](CC(C)C)C1=O` [pd143] (S(tBu)[NMeL][NEtG]T[NMeL][NMeL][Phe(4-CF3)]D-Piperidide; lactam N-8), the Papp A→B at 180 min is reported as 1.1 ×10⁻⁶ cm/s.

Same assay, conditions: human; Papp, Caco-2 membrane permeability, improved method; read-out: Caco-2
For `CCCCN1CC(=O)N(C)[C@@H](CC(C)C)C(=O)N[C@H](C(=O)N2CCCCC2)CC(=O)N(C)[C@@H](CC)C(=O)N[C@@H](CC(C)C)C(=O)N(C)[C@@H](CC(C)C)C(=O)N(C)[C@@H](Cc2ccccc2)C(=O)NC(CCc2noc(=O)[nH]2)C(=O)N(C)[C@@H](CC(C)C)C(=O)N(C)[C@@H](CC(C)C)C(=O)NC([C@@H](C)O)C1=O` (stereo partly drawn) [pd487] ([NMeAbu]L[NMeL][NMeF][X5][NMeL][NMeL][ξThr(3R)][NBuGly][NMeL]D-Piperidide; lactam N-11), the Papp A→B at 180 min was 2.2 ×10⁻⁶ cm/s. Work on `CCCCN1CC(=O)N(C)[C@@H](CC(C)C)C(=O)N[C@H](C(=O)N2CCCCC2)CC(=O)N(C)[C@@H](C)C(=O)N[C@@H](Cc2ccc(N(C)C)nc2)C(=O)N(C)[C@@H](CC(C)C)C(=O)N(C)[C@@H](Cc2ccccc2)C(=O)N[C@@H](CC(C)C)C(=O)N(C)[C@@H](C)C(=O)N(C)[C@@H](CC(C)C)C(=O)N[C@@H]([C@@H](C)O)C1=O` [pd398] ([NMeA][3Pal(6-NMe2)][NMeL][NMeF]L[NMeA][NMeL]T[NBuGly][NMeL]D-Piperidide; lactam N-11) yielded a Papp A→B at 180 min of 2.7 ×10⁻⁶ cm/s.
